Experimental data: patent US4772603A, “Method for treating congestive heart failure, angina, occlusive peripheral vascular disease or cerebral vascular disease in mammals” (Beecham Group p.l.c., priority 1984, dated 1988)
Read-outs that look alike come from different tables or passages of the source.

Assays:
Rat isolated portal vein = assay: Rat isolated portal vein: inhibition of spontaneous contractions and of contractions due to added calcium; parameters: species or system rat (male Sprague Dawley); conditions: for IC50: Rattus norvegicus, 0.25 h, 15 min contact time
Experimental: (1) Rat isolated portal vein. Male Sprague Dawley rats (250-350 g) were killed by cervical dislocation. Portal veins (2-3 cm in length) were set up under 0.8-1 g tension in a 10 ml organ bath containing Krebs-Henseleit solution, at 37° C., of the following composition (mM): NaCl 118, NaHCO3 25, glucose 5, KH2 PO4 1.18, KCl 4.69, MgSO4 0.59, CaCl2 ·H2 O 1.87. The tissue was aerated with a 95% oxygen and 5% carbon dioxide mixture. Isometric tension was recorded using a Devices strain gauge and recorder. Each preparation was allowed 1h to equilibrate before the addition of test compound. The ability of a compound to inhibit the contractions due to added calcium (3 mM CaCl2) was determined in tissues bathed in Krebs-Henseleit solution containing 0.05 mM CaCl2 (in order to reduce spontaneous contractions). Then percentage inhibition (mean±s.e.m.; 6-9 tissues) of the amplitude of the spontaneous contractions, and contractions due to added calcium, was determined after 15 min contact time with test compound.
IC50 is concentration of compound reducing contractions by 50%; parenthesis indicate 95% fiducial limits.

[1] = tested on: Rabbit isolated mesenteric artery; assay: Rabbit isolated mesenteric artery: inhibition of contractions due to 30 and 90 mM KCl; parameters: species or system rabbit (male New Zealand White)
Experimental: (2) Rabbit isolated mesenteric artery. Mesenteric arteries (3 mm rings) were removed from male New Zealand White rabbits and mounted, at a resting tension of 1.5-2.0 g, in a 10 ml organ bath containing a Ringer solution, at 37° C., of the following composition (mM): NaCl 120.8; KCl 5.9; CaCl2 2.5; MgCl2 1.2; HEPES 5.8; glucose 11.5. The bathing solution was bubbled with a 95% oxygen and 5% carbon dioxide mixture. Each preparation was allowed 1-11/2 h to equilibrate before the addition of either 30 or 90 mM KCl to contract the tissue. The ability of test compound to relax the sustained contraction due to KCl was determined by assessing the % reduction (mean±s.e.m.; 4-9 tissues) produced by varying concentrations of test compound.
IC50 is the concentration of compound 1 halving the contraction due to KCl; parenthesis indicate 95% fiducial limits.

hypoxic skeletal muscle = assay: Effect of compounds on skeletal muscle oxygen tension in the rat (with reduction in mean arterial blood pressure); type: in vivo; conditions: for CHANGE IN PO2 (average change in muscle PO2 produced by treatment) / REDUCTION IN MABP (Mean Arterial Blood Pressure): mean±S.D., 6 rats/treatment; for oxygen tension (PO2) in hypoxic skeletal muscle: at approximately a hypotensive dose
From the text: Values are mean±S.D.; 6 rats/treatment
MABP=Mean Arterial Blood Pressure
Change in PO2 =the average change in muscle PO2 produced by treatment

Compound | IC50 (Rat isolated portal vein; contractions due to added calcium (3 mM CaCl2), 0.05 mM CaCl2 Krebs-Henseleit, 95% fiducial limits (0.87-3.5), read-out: IC50 Ca^2+ (3 mM) (concentration reducing contractions by 50%)) [nM] | IC50 (Rat isolated portal vein; spontaneous contractions, 95% fiducial limits (0.67-7.8), read-out: IC50 Spontaneous (concentration reducing contractions by 50%)) [nM] | inhibitor of spontaneous contractions and of those due to added calcium (comparison in words) (Rat isolated portal vein; spontaneous versus added calcium contractions) | antagonism of contractions due to a partially / fully depolarising concentration of potassium ([1]; 30 mM (partially) and 90 mM (fully depolarising) KCl) | IC50 ([1]; Oryctolagus cuniculus, read-out: IC50 90 mM KCl (concentration halving the contraction due to KCl)) [nM] | effect against a high concentration of KCl ([1]; high KCl (90 mM)) | CHANGE IN PO2 (average change in muscle PO2 produced by treatment) (hypoxic skeletal muscle; 0.3 mg/kg intraduodenally) | REDUCTION IN MABP (Mean Arterial Blood Pressure) (hypoxic skeletal muscle; 0.3 mg/kg intraduodenally) [MMHG] | oxygen tension (PO2) in hypoxic skeletal muscle (hypoxic skeletal muscle) | CHANGE IN PO2 (average change in muscle PO2 produced by treatment) (hypoxic skeletal muscle; 1.0 mg/kg intraduodenally) | REDUCTION IN MABP (Mean Arterial Blood Pressure) (hypoxic skeletal muscle; 1.0 mg/kg intraduodenally) [MMHG]
CC1(C)Oc2ccc(C#N)cc2[C@@H](N2CCCC2=O)[C@@H]1O (relative stereo) [Compound 1, 6-cyano-3,4-dihydro-2,2-dimethyl-trans-4-(2-oxo-1-pyrrolidinyl)-2H-benzo[b]pyran-3-ol] | 150 | 120 | equipotent | antagonises the contractions due to a partially, but not a fully, depolarising concentration of potassium | > 10000 | effectiveness | +8.7 ± 2.3 TORR | 44 ± 4 | large increase | – | –
CCN(C(C)=O)[C@@H]1c2cc(C#N)ccc2OC(C)(C)[C@H]1O (relative stereo) [Compound 2, trans-4-N-acetylethylamino-6-cyano-3,4-dihydro-2,2-dimethyl-2H-benzo[b]pyran-3-ol] | – | – | – | – | – | – | – | – | large increase | +8.2 ± 3.7 TORR | 36 ± 4
